Data published in patent US20100137342A1, “METHODS FOR TREATING VASCULAR […]” (Myriad Pharmaceuticals, Inc., priority 2007, published 2010).
Counter-ions that a name gives are not always drawn.

How the values were obtained:
[1] = test system: human ovarian OVCAR-3 carcinoma cells; test: Vascular disruption effects in human tumor xenograft model (tumor histology, hematoxylin and eosin); type: in vivo, mice; settings: 24 hours after dosing; for blood vessels in the necrotic areas / tumor necrosis pattern (central area of the tumors): OVCAR-3 xenograft in Crl:Nu/Nu-nuBR mice, 10 mg/kg compound or 100 mg/kg CA4P, H&E sections
Procedure: (4-Methoxy-phenyl)-methyl-(2-methyl-quinazolin-4-yl)-amine hydrochloride was tested in a human tumor xenograft model to determine its vascular disruption effects. Crl:Nu/Nu-nuBR mice were grown and injected with 1×10^7 human ovarian OVCAR-3 carcinoma cells on the right flank and allowed to grow to various tumor volumes. Mice were then dosed with either vehicle, 100 mg/kg combretastatin A-4 phosphate (CA4P) (obtained from Toronto Research Chemicals, Ontario, Canada) or 10 mg/kg (4-Methoxy-phenyl)-methyl-(2-methyl-quinazolin-4-yl)-amine hydrochloride.
Animals were housed by groups in Positive Individual Ventilation (PIV) cages in flat-bottom cages (Thoren Caging Systems, Hazelton, Pa.) with no more than ten mice per cage. Cages contained autoclaved TEK-Fresh bedding (Harlan, Indianapolis, Ind.), which was changed every seven days. Environmental controls were set to maintain a temperature between 65° F. and 75° F. with a relative humidity of 30-70% in a 12:12 hour light:dark cycle. Animals were feed gamma-irradiated 2019 rodent chow ad libitum (Harlan, Indianapolis, Ind.). Tap water was sterilized using manufacture recommended conditions and supplied via an automated watering system ad libitum (Edstrom Industries, Waterford, Wis.). Twenty four hours after dosing, mice were sacrificed and tumors and hearts removed, fixed, sectioned and stained with hematoxylin and eosin Y (each obtained from Richard Allen Scientific, Kalamazoo, Mich.).

[2] = Phase I clinical trial, weekly intravenous administration, subjects with refractory solid tumors; type: in vivo, human; settings: Phase 1, i.v. weekly x3 per 4 week cycle, 0.3-3.3 mg/m^2
Procedure: An open-label, dose-escalating, multiple-dose study to define the safety, tolerability and phamacokinetics of weekly intravenous administration of (4-Methoxy-phenyl)-methyl-(2-methyl-quinazolin-4-yl)-amine hydrochloride was performed. A dosing schedule (each 4 week cycle) was performed for (4-Methoxy-phenyl)-methyl-(2-methyl-quinazolin-4-yl)-amine hydrochloride weekly for 3 weeks with no infusion on the fourth week of each cycle. Subjects with refractory solid tumors were enrolled in cohorts of 3. During Cycle 1, subjects were hospitalized during each infusion of (4-Methoxy-phenyl)-methyl-(2-methyl-quinazolin-4-yl)-amine hydrochloride and remained for observation and safety evaluation for approximately 24 hours following the end of the infusion. All subject had continuous telemetry for 2 hours prior to infusion, for 1-2 hour infusion and for 3 hours after the end of the infusion. Any clinically significant electrocardiographic (ECG) wave form abnormality was recorded and prolongation of the monitoring period extended at the discretion of the principal investigator.
Electrocardiograms were obtained prior to starting the infusion and within 30 minutes of the end of infusion for each infusino of the first cycle. Electrocardiograms on Day 1 were obtained in triplicate 5 minutes apart.
Neurocognitive assessments were made by administration of the Mini-Mental State Examination (MMSE), the Hopkins Verbal Learning and timed Grooved Pegboard tests before administration of the intravenous infusion and approximately 24 hours of the infusion at each weekly administration of the first cycle.
On days 1, 8, and 15 of each cycle, vital signs were obtained prior to the first dose, at 15, 30, and 60 minutes after the initiation of the infusion, and at 0.5, 1, 1.5, 2, and 4 hours after the end of the intravenous infusion. Vital signs at all time points beyond the start of the intravenous infusion included heart rate, blood pressure and respirations. Temperature ws measured at the end of the infusion and 4 hours later.
Individual subjects were allowed to continue on repeated weekly×3 administrations every 28 days with no dose increase provided there was no unacceptable toxicity or disease progression.
Tumor response was evaluated by response evaluation criteria in solid tumors (RECIST) criteria. To prevent sever hypersensitivity reactions due to Cremophor® EL, subjects were premedicated with oral dexamethasone (20 mg) administered approximately 12 and 6 hours before the intravenous infusion with (4-Methoxy-phenyl)-methyl-(2-methyl-quinazolin-4-yl)-amine hydrochloride, diphenhydramine (50 mg) or its equivalent administered intravenously 30-60 minutes before (4-Methoxy-phenyl)-methyl-(2-methyl-quinazolin-4-yl)-amine hydrochloride, and cimetidine (300 mg) or ranitidine (50 mg) administered intravenously 30-60 minutes before (4-Methoxy-phenyl)-methyl-(2-methyl-quinazolin-4-yl)-amine hydrochloride.

| SMILES | blood vessels in the necrotic areas [1] | tumor necrosis pattern (central area of the tumors) [1] | degree of necrosis compared with CA4P treated animals ([1]; OVCAR-3 xenograft, 10 mg/kg compound vs 100 mg/kg CA4P) | bradycardia [2] | dose limiting toxicity [2] | intratumor bleeding [2] | overall safety and tolerability [2] | peripheral cytotoxicity [2] | systolic blood pressure [2] | effects on cardiac conduction (PR, QRS or QTc) ([2]; ECG) |
| --- | --- | --- | --- | --- | --- | --- | --- | --- | --- | --- |
| COc1ccc(N(C)c2nc(C)nc3ccccc23)cc1 [(4-Methoxy-phenyl)-methyl-(2-methyl-quinazolin-4-yl)-amine hydrochloride] | consistently congested with perivascular hemorrhage | extensive necrosis with a rim of viable tumor tissue around the periphery | degree of necrosis appeared greater | occasional episodes of bradycardia | vascular in nature, manifested by an acute coronary syndrome | incidences of intratumor bleeding | safe and tolerable | no evidence of cytotoxity peripherally | dose-related increase | no significant effects |
| COc1ccc(/C=C\c2cc(OC)c(OC)c(OC)c2)cc1OP(=O)(O)O [CA4P, combretastatin A-4 phosphate, reference compound] | consistently congested with perivascular hemorrhage | extensive necrosis with a rim of viable tumor tissue around the periphery | – | – | – | – | – | – | – | – |
